Laboratory results published in the supplement of paper PMC10307832.

Key:
Assay in all cases: relative viability (nuclei count vs DMSO), 5 days (fraction); higher = more cells survive
[1] = compound: O=C(O)C(Cc1ccccc1[N+](=O)[O-])=NNc1nc(-c2ccc(Cl)c(Cl)c2)cs1 (mixture of isomers) [4EGI-1] + C[C@@H](Oc1cc(-c2cnn(C3CCNCC3)c2)cnc1N)c1c(Cl)ccc(F)c1Cl [Crizotinib] (partner 1 µM)
In short: (§1)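 Cells from lung cancer lines were seeded into 1536-well plates and, one day later, dosed by pin tool. Treatments were either a single drug or a fixed dose of an anchor drug with five library-drug doses (not always all listed) in √10 steps. After 5 days, nuclei were stained in a one-step fixation (final 0.05% Triton X-100, 1% formaldehyde, 1 ug/ml Hoechst) and counted on 4× images, and relative viability is the treated-to-vehicle nuclei ratio, as the median of duplicate plates.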

[2] = compound: CN1CCN(CC1)C2=CC(=C(C=C2)NC3=NC=C4C(=N3)N(C5=CC=CC=C5C(=O)N4C)C)OC [XMD8-85] + CC(=O)c1c(C)c2cnc(Nc3ccc(N4CCNCC4)cn3)nc2n(C2CCCC2)c1=O [Palbociclib] (partner 0.5 µM)
In short: as §1

[3] = compound: O=C(O)C(Cc1ccccc1[N+](=O)[O-])=NNc1nc(-c2ccc(Cl)c(Cl)c2)cs1 (mixture of isomers) [4EGI-1] + Nc1ncn([C@H]2C[C@H](O)[C@@H](CO)O2)c(=O)n1 [Decitabine] (partner 2 µM)
In short: as §1

[4] = compound: CN1CCN(CC1)C2=CC(=C(C=C2)NC3=NC=C4C(=N3)N(C5=CC=CC=C5C(=O)N4C)C)OC [XMD8-85] + NC(=O)Nc1cc(-c2cccc(F)c2)sc1C(=O)N[C@H]1CCCNC1 [AZD7762] (partner 0.2 µM)
In short: as §1

Cell Line | relative viability ([1]; first compound 0.5 µM) | relative viability ([1]; first compound 1.581 µM) | relative viability ([1]; first compound 5 µM) | relative viability ([1]; first compound 50 µM) | relative viability ([2]; first compound 0.08 µM) | relative viability ([2]; first compound 0.253 µM) | relative viability ([2]; first compound 0.8 µM) | relative viability ([2]; first compound 2.53 µM) | relative viability ([2]; first compound 8 µM) | relative viability ([3]; first compound 0.5 µM) | relative viability ([3]; first compound 5 µM) | relative viability ([3]; first compound 15.81 µM) | relative viability ([3]; first compound 50 µM) | relative viability ([4]; first compound 0.253 µM) | relative viability ([4]; first compound 0.8 µM) | relative viability ([4]; first compound 2.53 µM) | relative viability ([4]; first compound 8 µM) | relative viability ([4]; first compound 0.08 µM) | relative viability ([1]; first compound 15.81 µM)
PC-3 [JPC-3] | 0.998 | 0.883 | 0.876 | 0.55 | 0.489 | 0.539 | 0.551 | 0.583 | 0.564 | 0.95 | 0.771 | 0.498 | 0.53 | 0.782 | 0.82 | 0.712 | 0.411 |  | 
PC-14 | 1.08 | 0.617 | 0.875 | 0.907 | 0.552 | 0.44 | 0.596 | 0.404 | 0.167 | 0.227 | 0.222 | 0.13 | 0.0662 | 0.364 | 0.34 | 0.394 | 0.18 | 0.352 | 
RERF-LC-KJ | 0.852 | 0.676 | 0.815 | 0.684 | 1.09 | 1.13 | 1.18 | 1.23 | 0.768 | 0.828 | 0.609 | 0.444 | 0.285 | 0.98 | 0.936 | 1.3 | 0.886 | 1.01 | 0.675
